Measured values as given in patent US6362369B1, “Phthalic acid diamide derivatives fluorine-containing aniline compounds as starting material, agricultural and horticultural insecticides, and a method for application of the insecticides” (Nihon Nohyaku Co., Ltd., priority 1997, dated 2002).

How the values were obtained:
[1] = system: diamondback moth (Plutella xylostella); assay: Insecticidal effect on diamondback moth (Test Example 1); assay type: in vivo; settings: for Insecticidal effect on diamondback moth (Test Example 1), judged grade: mortality judged according to the criterion shown in Test Example 1
Outline: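 Read-out was mortality from hatched-insect counts taken 6 days after the egg-bearing cabbage seedling was immersed, graded by set criteria. Seedlings were air-dried and kept at 25° C after treatment. Groups of 10 insects, in triplicate.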

[2] = system: rice leafroller (Cnaphalocrocis medinalis); assay: Insecticidal effect on rice leafroller (Test Example 3); assay type: in vivo; settings: 500 ppm, four days after inoculation, 25° C., humidity 70%; for Insecticidal effect on rice leafroller (Test Example 3), judged grade: rice lamina dip, third-instar larvae
Outline: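 Groups of 10 third-instar larvae, in triplicate, are placed on air-dried lamina resting on wet filter paper. Incubation runs four days at 25° C with 70% humidity before survivors and dead are tallied.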

| SMILES | Insecticidal effect on diamondback moth (Test Example 1), judged grade [1] | Insecticidal effect on rice leafroller (Test Example 3), judged grade [2] | Insecticidal effect, Test Example 1 ([1]; diamondback moth, mortality judged by criterion of Test Example 1) | Insecticidal effect, Test Example 3 ([2]; rice leafroller third-instar larvae, rice lamina immersed) |
| --- | --- | --- | --- | --- |
| Cc1cc(OC(F)(F)C(F)F)c(Cl)cc1NC(=O)c1cccc([N+](=O)[O-])c1C(=O)NC(C)C [compound 718] | A (100) | A (100) |  |  |
| Cc1cc(SC(F)F)ccc1NC(=O)c1cccc([N+](=O)[O-])c1C(=O)NC(C)C [compound 722] | A (100) | A (100) |  |  |
| Cc1cc(N(C)C)ccc1NC(=O)c1cccc([N+](=O)[O-])c1C(=O)NC(C)C [compound 723] | D (79-50) | D (79-50) |  |  |
| Cc1cc(Oc2cccc(C(F)(F)F)c2)ccc1NC(=O)c1cccc([N+](=O)[O-])c1C(=O)NC(C)C [compound 724] | A (100) | B (99-90) |  |  |
| Cc1cc(Oc2ccc(C(F)(F)F)cn2)ccc1NC(=O)c1cccc([N+](=O)[O-])c1C(=O)NC(C)C [compound 728] | A (100) | A (100) |  |  |
| Cc1cc(Oc2ncc(C(F)(F)F)cc2Cl)ccc1NC(=O)c1cccc([N+](=O)[O-])c1C(=O)NC(C)C [compound 729] | A (100) | A (100) |  |  |
| CC(C)NC(=O)c1cccc([N+](=O)[O-])c1C(=O)Nc1ccc(C(F)(F)F)cc1Cl [compound 740] | A (100) | A (100) |  |  |
| Cc1cc(Cl)ccc1NC(=O)c1cccc(C)c1C(=O)NC(C)C [compound 750] | A (100) | A (100) |  |  |
| Cc1cc(OC(F)F)ccc1NC(=O)c1cccc(C)c1C(=O)NC(C)C [compound 751] | A (100) | A (100) |  |  |
| Cc1ccc(Cl)cc1NC(=O)c1cccc(C(F)(F)F)c1C(=O)NC(C)C [compound 755] | A (100) | A (100) |  |  |
| COc1cccc(C(=O)NC(C)C)c1C(=O)Nc1ccc(OC(F)(F)F)cc1 [compound 769] | A (100) | D (79-50) |  |  |
| COc1cccc(C(=O)NC(C)C)c1C(=O)Nc1ccc(Br)cc1C [compound 771] | A (100) | C (89-80) |  |  |
| Cc1cc(Cl)ccc1NC(=O)c1cccc(OC(F)F)c1C(=O)NC(C)C [compound 772] | A (100) | A (100) |  |  |
| Cc1ccc(Cl)cc1NC(=O)c1cccc(OC(F)F)c1C(=O)NC(C)C [compound 773] | A (100) | A (100) |  |  |
| Cc1cc(OC(F)F)ccc1NC(=O)c1cccc(OC(F)F)c1C(=O)NC(C)C [compound 774] | A (100) | A (100) |  |  |
| Cc1ccc(Cl)cc1NC(=O)c1cc(OC(F)F)ccc1C(=O)NC(C)C [compound 776] | B (99-90) | D (79-50) |  |  |
| Cc1cc(Cl)ccc1NC(=O)c1c(OC(F)F)cccc1C(=O)NC(C)C [compound 777] | A (100) | D (79-50) |  |  |
| Cc1ccc(Cl)cc1NC(=O)c1c(OC(F)F)cccc1C(=O)NC(C)C [compound 778] | A (100) | A (100) |  |  |
| CSc1cccc(C(=O)Nc2ccc(Br)cc2C)c1C(=O)NC(C)C [compound 782] | A (100) | A (100) |  |  |
| Cc1cc(Cl)ccc1NC(=O)c1cccc(SC(C)C)c1C(=O)NC(C)C [compound 788] | C (89-80) | C (89-80) |  |  |
| Cc1cc(OC(F)F)ccc1NC(=O)c1cccc([S+](C)[O-])c1C(=O)NC(C)C (stereo not drawn) [compound 791] | A (100) | A (100) |  |  |
| Cc1cc(OC(F)F)ccc1NC(=O)c1cccc(SCC(F)(F)F)c1C(=O)NC(C)C [compound 797] | A (100) | C (89-80) |  |  |
| Cc1cc(OC(F)F)ccc1NC(=O)c1cccc([S+]([O-])CC(F)(F)F)c1C(=O)NC(C)C (stereo not drawn) [compound 799] | A (100) | A (100) |  |  |

| SMILES | Insecticidal effect on diamondback moth (Test Example 1), judged grade [1] | Insecticidal effect on rice leafroller (Test Example 3), judged grade [2] | Insecticidal effect, Test Example 1 ([1]; diamondback moth, mortality judged by criterion of Test Example 1) | Insecticidal effect, Test Example 3 ([2]; rice leafroller third-instar larvae, rice lamina immersed) |
| --- | --- | --- | --- | --- |
| Cc1cc(Cl)ccc1NC(=O)c1cccc(C(=O)NC(C)C)c1C(=O)NC(C)C [compound 803] | A (100) | A (100) |  |  |
| Cc1ccc(Cl)cc1NC(=O)c1ccc2ccccc2c1C(=O)NC(C)C [compound 821] | A (100) | A (100) |  |  |
| Cc1ccc(Cl)cc1NC(=O)c1cc2ccccc2cc1C(=O)NC(C)C [compound 822] | D (79-50) | D (79-50) |  |  |
| Cc1cc(Cl)ccc1NC(=O)c1ccccc1C(=O)N(C)C(C)C [compound 826] | A (100) | A (100) |  |  |
| CC(C)CNC(=O)c1ccccc1C(=O)Nc1ccc(C(F)(F)F)cc1 [compound 833] | A (100) | D (79-50) |  |  |
| CCC(C)NC(=O)c1c(Cl)cccc1C(=O)Nc1ccc(OC(F)F)cc1C (stereo not drawn) [compound 836] | A (100) | A (100) |  |  |
| CCC(C)NC(=O)c1c(C(=O)Nc2ccc(OC(F)F)cc2C)cccc1[N+](=O)[O-] (stereo not drawn) [compound 839] | A (100) | C (89-80) |  |  |
| CC(C)(C)NC(=O)c1ccccc1C(=O)Nc1ccccc1 [compound 840] | A (100) | D (79-50) |  |  |
| Cc1cc(OC(F)F)ccc1NC(=O)c1c(Cl)cccc1C(=O)NC1CC1 [compound 850] | A (100) | A (100) |  |  |
| Cc1cc(OC(F)F)ccc1NC(=O)c1cccc([N+](=O)[O-])c1C(=O)NC1CC1 [compound 852] | A (100) | D (79-50) |  |  |
| Cc1cc(OC(F)F)ccc1NC(=O)c1cccc([N+](=O)[O-])c1C(=O)NC1CCCC1 [compound 856] | A (100) | D (79-50) |  |  |
| Cc1cc(OC(F)F)ccc1NC(=O)c1cccc([N+](=O)[O-])c1C(=O)NCCF [compound 863] | A (100) | B (99-90) |  |  |
| C=CCNC(=O)c1c(C(=O)Nc2ccc(OC(F)F)cc2C)cccc1[N+](=O)[O-] [compound 867] | A (100) | C (89-80) |  |  |
| COCCNC(=O)c1c(C(=O)Nc2ccc(OC(F)F)cc2C)cccc1[N+](=O)[O-] [compound 872] | A (100) | C (89-80) |  |  |
| Cc1cc(OC(F)F)ccc1NC(=O)c1cccc([N+](=O)[O-])c1C(=O)NC(C)c1ccccc1 (stereo not drawn) [compound 879] | A (100) | A (100) |  |  |
| CC(C)NC(=O)c1ccccc1C(=O)Nc1ccc(C(F)(F)C(F)(F)F)cc1 [compound 889] | A (100) | A (100) |  |  |
| CC(C)NC(=O)c1cccc(F)c1C(=O)Nc1ccc(C(F)(F)C(F)(F)F)cc1 [compound 892] | A (100) | A (100) |  |  |
| CC(C)NC(=O)c1c(Cl)cccc1C(=O)Nc1ccc(C=C(Cl)C(F)(F)F)cc1 [compound 911] | A (100) | D (79-50) |  |  |
| CCc1ccc(Cl)c(CC)c1NC(=O)c1cccc(I)c1C(=O)NC(C)C [compound 925] | A (100) | A (100) |  |  |
| CC(C)(C)NC(=O)c1ccccc1C(=O)Nc1ccc(C(F)(F)F)cc1 [compound 928] | A (100) | A (100) |  |  |
| CN(C(=O)c1ccccc1C(=O)NC(C)(C)C)c1ccc(OC(F)(F)F)cc1 [compound 933] | A (100) | A (100) |  |  |
| CCCCNC(=O)c1cccc(I)c1C(=O)Nc1ccc(C(F)(F)C(F)(F)F)cc1C [compound 946] |  |  | A (100) | A (100) |
